Measurements taken from patent US20250090530A1, “COMBINATIONS FOR THE TREATMENT OF CANCER” (Terns Pharmaceuticals, Inc., priority 2023, published 2025).

Experiments:
K562 [1] = experiment: Fixed molar combinations with active site TKIs, curve shift and isobologram analyses (CellTiter-Glo viability); assay type: cell-based
Ku812 [2] = experiment: as above; assay type: cell-based
BaF3-BCR-ABL-T315I = experiment: Expanded combination matrix, excess over Bliss; assay type: cell-based; conditions: 72 hours
BaF3BCR-ABL-T315I = experiment: Fixed molar combinations, curve shift and isobologram analyses; assay type: cell-based; conditions: 72 hours
K562 [3] = experiment: Expanded combination matrix, BLISS synergy (CellTiter-Glo viability); assay type: cell-based
Ku812 [4] = experiment: as above; assay type: cell-based
kinase panel = experiment: In vitro kinase panel (substrate phosphorylation assays); assay type: biochemical; conditions: at 1 μM

O=C(Nc1ccc(OC(F)(F)Cl)cc1)c1cnc(N2CC[C@@H](O)C2)c(-c2cc[nH]n2)c1 [Asciminib, asciminib]
Summary of Observations (synergy by curve shift and isobologram analyses) (K562 [1]; combination partner Dasatinib): Synergy at IC90
Summary of Observations (synergy by curve shift and isobologram analyses) (K562 [1]; combination partner Imatinib): Synergy at IC75 and IC90
Summary of Observations (synergy by curve shift and isobologram analyses) (K562 [1]; combination partner Ponatinib): Synergy at IC75 and IC90
Summary of Observations (synergy by curve shift and isobologram analyses) (Ku812 [2]; combination partner Dasatinib): Additivity
Summary of Observations (synergy by curve shift and isobologram analyses) (Ku812 [2]; combination partner Imatinib): Additivity
Summary of Observations (synergy by curve shift and isobologram analyses) (Ku812 [2]; combination partner Ponatinib): Additivity
Excess over Bliss score sum (BaF3-BCR-ABL-T315I; Compound 2 dasatinib): 3.19
Highest excess over Bliss score (BaF3-BCR-ABL-T315I; Compound 2 dasatinib): 0.27
Excess over Bliss score sum (BaF3-BCR-ABL-T315I; Compound 2 flumatinib): 0.81
Highest excess over Bliss score (BaF3-BCR-ABL-T315I; Compound 2 flumatinib): 0.15
Excess over Bliss score sum (BaF3-BCR-ABL-T315I; Compound 2 imatinib): 1.29
Highest excess over Bliss score (BaF3-BCR-ABL-T315I; Compound 2 imatinib): 0.15
Excess over Bliss score sum (BaF3-BCR-ABL-T315I; Compound 2 nilotinib): 0.36
Highest excess over Bliss score (BaF3-BCR-ABL-T315I; Compound 2 nilotinib): 0.05
Excess over Bliss score sum (BaF3-BCR-ABL-T315I; Compound 2 ponatinib): 0.83
Highest excess over Bliss score (BaF3-BCR-ABL-T315I; Compound 2 ponatinib): 0.14
Conclusion (synergy by curve shift and isobologram analyses) (BaF3BCR-ABL-T315I; Reference dasatinib): synergy
Conclusion (synergy by curve shift and isobologram analyses) (BaF3BCR-ABL-T315I; Reference flumatinib): no synergy
Conclusion (synergy by curve shift and isobologram analyses) (BaF3BCR-ABL-T315I; Reference nilotinib): no synergy

C[C@H](CO)n1c(C(F)F)nc2cc(C(=O)Nc3ccc(OC(F)(F)Cl)cc3)cc(-c3cncnc3)c21 [Compound A, (R)—N-(4-(chlorodifluoromethoxy)phenyl)-2-(difluoromethyl)-1-(1-hydroxypropan-2-yl)-7-(pyrimidin-5-yl)-1H-benzo[d]imidazole-5-carboxamide]
Interaction in in vitro combination studies (K562 [1]; with multiple TKIs): works synergistically
Interaction in in vitro combination studies (Ku812 [2]; with multiple TKIs): at least additively
Strongest BLISS score (K562 [3]; combination partner Dasatinib): 0.16
Summary of Observations (BLISS synergy) (K562 [3]; combination partner Dasatinib): BLISS synergy
Strongest BLISS score (K562 [3]; combination partner Imatinib): 0.12
Summary of Observations (BLISS synergy) (K562 [3]; combination partner Imatinib): BLISS synergy
Strongest BLISS score (K562 [3]; combination partner Ponatinib): 0.17
Summary of Observations (BLISS synergy) (K562 [3]; combination partner Ponatinib): BLISS synergy
Strongest BLISS score (Ku812 [4]; combination partner Dasatinib): 0.08
Summary of Observations (BLISS synergy) (Ku812 [4]; combination partner Dasatinib): Weak synergy observed
Strongest BLISS score (Ku812 [4]; combination partner Imatinib): 0.05
Summary of Observations (BLISS synergy) (Ku812 [4]; combination partner Imatinib): Weak synergy observed
Strongest BLISS score (Ku812 [4]; combination partner Ponatinib): 0.07
Summary of Observations (BLISS synergy) (Ku812 [4]; combination partner Ponatinib): Weak synergy observed
Inhibition of any kinase in in vitro kinase panel (kinase panel): ≤ 50%
